Data as given in patent US20070148684A1, “IMMUNOASSAY FOR HIV PROTEASE INHIBITORS” (priority 2000, published 2007).

Test system: saquinavir antiserum
Experiment: Assay specificity determination: competitive microtiter plate ELISA with saquinavir-BSA coated plate and saquinavir antiserum
Assay type: binding, sheep
Conditions: for dose-response of optical density at 450 nm (competition for antiserum binding): serial three-fold dilutions of drug in PBS-TWEEN, antiserum 1:12,800, 62.5 ng/ml saquinavir-BSA coat
Experimental: Corning micro-ELISA plates (96 wells) were used throughout. The saquinavir-BSA conjugate was diluted to 2 μg/ml in 0.1 M sodium carbonate buffer, pH 9.5. One hundred microliters of the buffer was placed in the wells of each row of the plate except the first row. The first row was filled with 200 μL of the 2 μg/ml saquinavir-BSA solution, and a twelve-tip micropipettor was used to transfer 100 μl from the first row to the second row of all columns at the same time. Mixing of contents of the second row was accomplished by re-pipetting 3 times. One hundred microliters from the second row was then transferred to the third row and mixed. This was repeated to the last row of the plate. After mixing, 100 μl was removed from the last row and discarded. The plate was placed in a humidified Zip-Loc bag and incubated for 1 hour at 37° C. After incubation, the plate was removed from the incubator and bag and emptied into a waste container. PostCoat solution was added to each well in the amount of 200 μl. This solution consisted of 1% gelatin hydrolysate, 2% sucrose, 0.15 M Tris, pH 7.4, 0.17% TWEEN 20 (ICI Americas Inc.), and 0.02% Thimerosal preservative. All reagents were from Sigma Chemicals. The plate was returned to the humidified bag and placed in the incubator for 1 hour. Five minutes before the incubation was complete, Zymed rabbit anti-sheep IgG-HRP conjugate was diluted 1:2000 in PBS-TWEEN and vortexed gently to completely mix. Upon completion of the hour incubation, the plate was washed 4 times with 300 μl of PBS-TWEEN using a BioTek Instruments, Inc. EL404 plate washer. One hundred microliters of the diluted rabbit anti-sheep IgG-HRP conjugate was then pipetted into each well, the plate re-bagged and incubated for 1 hour. At the completion of the hour, the plate was removed from the incubator and bag and washed six times on the plate washer. One hundred microliters of K-BLUE enzyme substrate (Neogen, Inc.) was then added to each well and color allowed to develop in the dark for 5 minutes. Color development was halted by the addition of 100 μl of 1 N hydrochloric acid to each well. The optical density of each well was measured at two wavelengths, 405 nm and 450 nm using a Molecular Devices, Inc. ThermoMax plate reader. […] Therefore, the OD405 measurements were used to calculate the extrapolated OD450 by the well-known method of using a linear least squares regression of readings at both wavelengths. An ELISA plate was coated with the above concentrations of saquinavir-BSA using the same conditions as set forth above. While the plates were being PostCoated, serial three-fold dilutions of saquinavir, ritonavir, indinavir, and nelfinavir were prepared in a 1 ml capacity 96-well plate. All drugs were prepared at 1 mg/ml in absolute methanol and stored at 4° C. until used. […]

Cc1c(O)cccc1C(=O)N[C@@H](CSc1ccccc1)[C@H](O)CN1C[C@H]2CCCC[C@H]2C[C@H]1C(=O)NC(C)(C)C [nelfinavir]
cross-reaction of the antiserum (relative to saquinavir, calculated from OD450 dose-response data): 0.4% | dose-response of optical density at 450 nm (competition for antiserum binding): lesser response

CC(C)(C)NC(=O)[C@@H]1C[C@@H]2CCCC[C@@H]2CN1C[C@@H](O)[C@H](Cc1ccccc1)NC(=O)[C@H](CC(N)=O)NC(=O)c1ccc2ccccc2n1 [saquinavir]
inhibition with respect to zero drug (lowest non-zero drug concentration in Example 5 (7 dilution steps)): ~50% | dose-response of optical density at 450 nm (competition for antiserum binding): dose-response curve
